Results on 9 molecules are retold here after US20020061599A1, “Method of identifying ligands of biological target molecules” (priority 1999, published 2002).

“Also recorded” adds a separate entry of the source.

The target of one test is T1, galanin R1 receptor (Homo sapiens, UniProt P47211).
T1 construct: expressed in transfected cells; host or cells: COS-7
T1 sequence (P47211 1-349): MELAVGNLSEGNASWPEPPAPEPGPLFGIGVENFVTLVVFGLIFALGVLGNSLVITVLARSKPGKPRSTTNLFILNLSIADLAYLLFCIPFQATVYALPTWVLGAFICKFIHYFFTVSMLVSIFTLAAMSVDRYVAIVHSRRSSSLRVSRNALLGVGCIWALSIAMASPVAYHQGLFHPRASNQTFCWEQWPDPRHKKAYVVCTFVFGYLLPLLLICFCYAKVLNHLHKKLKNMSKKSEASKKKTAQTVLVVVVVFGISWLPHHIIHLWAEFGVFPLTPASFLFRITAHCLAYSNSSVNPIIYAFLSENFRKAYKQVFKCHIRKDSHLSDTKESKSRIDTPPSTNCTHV
As to the kind of experiment: Whole cell competition binding with [125I]-galanin in COS-7 cells expressing galanin receptor. The settings on record: for binding affinity compared with the basic chelator 1,10-phenanthroline: chelator in complex with Cu(II). The source says:
Whole cell competition binding experiment with COS-7 cells expressing the wild type and mutant forms of the galanin receptor using [^125I]-galanin as radioligand.
Methods—The galanin receptor cDNA was introduced into COS-7 cells by the standard calcium phosphate transfection method. The cells were transferred and seeded in multi-well plates for assay one day following the transfection and the number of cells plated per well was adjusted for each individual (wild type and mutant) construct aiming at the binding of 5 to 10% of the radioligand present in the assay. Two days post-transfection the cells were assayed for the presence of [^125]-Galanin binding activity. Radioligand was bound in buffer composed of 25 mM Hepes (pH 7.4), 2.5 mM MgCl2, […] Baciacin and displaced in a dose dependent manner by unlabelled ligand. The assay was performed in triplicate for 3 hours at 4° C., and terminated by the addition of lysis buffer (48% urea, 2% NP-40 in 3M acetic acid). The concentration of radioligand in the assay corresponds to a final concentration of 20 pM.

Another test concerns the target T2, Factor VIIa (FVIIa) (Homo sapiens, UniProt P08709).
T2 construct: Factor VIIa, i.e. the active form of the FVII protease involved in the coagulation cascade; purchased American Diagnostica
T2 sequence (P08709 213-466 limits assumed): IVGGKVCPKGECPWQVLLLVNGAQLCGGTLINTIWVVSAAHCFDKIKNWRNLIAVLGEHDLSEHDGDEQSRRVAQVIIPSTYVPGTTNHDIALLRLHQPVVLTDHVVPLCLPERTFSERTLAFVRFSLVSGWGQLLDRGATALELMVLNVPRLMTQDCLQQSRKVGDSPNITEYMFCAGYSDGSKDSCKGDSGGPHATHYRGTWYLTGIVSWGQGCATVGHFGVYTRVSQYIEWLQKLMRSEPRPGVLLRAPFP
T2 sequence (P08709 61-212 partner limits assumed): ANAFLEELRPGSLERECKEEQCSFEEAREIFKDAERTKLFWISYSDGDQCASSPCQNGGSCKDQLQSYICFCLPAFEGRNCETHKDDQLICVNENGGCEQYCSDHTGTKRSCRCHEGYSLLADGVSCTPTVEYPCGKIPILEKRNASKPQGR
Briefly: Amidolytic activity of Factor VIIa. Format: biochemical. Conditions: for effect on the activity of FVIIa: chelator without metal-ions. The procedure: Method—The amidolytic activity of Factor VIIa (FVIIa) was measured by the incubation of 2.5 μl FVIIa (100 nM final concentration, obtained from American Diagnostica), 2.5 μl ligand and 4 μl substrate (10 mM, S2288 obtained from Chromogenix) in 42.5 μl buffer (50 mM Hepes pH 7.4, 1 mM CaCl2, 100 mM NaCl, 0,02% Tween 20). The assay was performed in 96-well plates (Costar). Incubation was performed at room temperature for five hours with absorbance read every 10 minutes.

Test [1] addresses T3, NK1 receptor [HisV:05,HisVI:24] (Homo sapiens, UniProt P25103, Y272H).
T3 construct: expressed in transfected cells; host or cells: COS-7
As to the kind of experiment: Competition binding with [125I]-Substance P, NK1 receptor [HisV:05,HisVI:24] site. Conditions: all in complex with Zn(II). The method, then:
(§1) Binding of [^125I]-Substance P was analysed in COS-7 cells expressing NK1 receptor which have been engineered to bind the zinc metal-ion. Ligand binding is presented in competiton with the zinc metal-ion, the zinc-1,10-phenanthroline complex and with other zinc-chelator complexes as indicated. For structures of the chelators, see Appendix.

Test [2] has as its target T4, NK1 receptor [HisIII:08;CysVII:06] (Homo sapiens, UniProt P25103, M291C/P112H).
T4 construct: expressed in transfected cells; host or cells: COS-7
As to the kind of experiment: Competition binding with [125I]-Substance P, NK1 receptor [HisIII:08;CysVII:06] site. Conditions: all in complex with Zn(II). The procedure: as §1

The target in test [3] is T5, leukotriene LTB4 receptor (Homo sapiens, UniProt Q15722).
T5 construct: expressed in transfected cells; host or cells: COS-7
Briefly: Whole cell competition binding with [3H]-LTB4 in COS-7 cells expressing wild type LTB4 receptor. From the text:
Whole cell competition binding experiment with COS-7 cells expressing the wild type and mutant variants of the leukotriene LTB4 receptor using [^3H]-LTB4 as the radioligand.
Methods—The leukotriene LTB4 receptor cDNA was cloned by PCR from a leukocyte cDNA library, built into an eukaryotic expression vector and introduced into COS-7 cells by a standard calcium phosphate transfection method. One day after transfection the cells were transferred and seeded in multi-well plates for assay. The number of cells plated per well was chosen so as to obtain 5 to 10% binding of the radioligand added. Two days after transfection the cells were assayed for the presence of [^3H]-LTB4 binding activity. […] The assay was performed in duplicate for 3 hours at 4° C., and stopped by washing twice in buffer. Cell associated, receptor bound radioligand was determined by the addition of lysis buffer (48% urea, 2% NP-40 in 3M acetic acid).

The next test concerns the target T6, dopamine transporter (Homo sapiens, UniProt Q01959).
T6 construct: expressed in transfected cells; host or cells: COS-7
Briefly: [3H]-dopamine uptake in COS-7 cells expressing wild-type dopamine transporter. Format: cell-based. The settings on record: for effect on dopamine transport: chelator by itself, without metal-ion. The procedure:
Competition analysis of uptake of [^3H]-dopamine in whole COS-7 cells expressing the dopamine transporter.
(§2) Methods—The dopamine transporter cDNA was introduced into COS-7 by the standard calcium phosphate transfection method. Two days post-transfection the cells were assayed for [^3H]-Dopamine uptake activity. The uptake assays was performed in 25 mM Hepes pH 7.4, 120 mM NaCl, 5 mM KCl, 1.2 mM CaCl2, 1.2 mM MgSO4, 1 mM ascorbic acid and 5 mM D-glucose and in the presence of various concentrations of unlabelled dopamine as indicated in the figures. The assay was performed in triplicate at 37° C. for 10 minutes, and terminated by washing with buffer twice and the addition of lysis buffer (48% urea, 2% NP-40 in 3M acetic acid).

Test [4] deals with T7, [H193K] dopamine transporter (Homo sapiens, UniProt Q01959, H193K).
T7 construct: expressed in transfected cells; host or cells: COS-7
As to the kind of experiment: [3H]-dopamine uptake in COS-7 cells, [H193K] mutant dopamine transporter. Format: cell-based. The settings on record: mutational substitution of His193; chelator in complex with Zn(II). The procedure: Panel B. Dopamine uptake analysis in a mutant form of the dopamine transporter, [H193K], in which binding of the metal-ion complex has been eliminated (Noregaard et al. EMBO J. (1998) 17: 4266-4273).
as §2

In test [5] the test system is metal-ion site engineered tachykinin NK1 receptors. Briefly: Competition binding with [125I]-Substance P, library of inter-helical metal-ion sites engineered into NK1 receptor. Conditions: sites between TM-III and -V and between TM-V and -VI. The method, then:
COS-7 cells expressing various engineered forms of the NK1 receptor were analyzed by competition binding using [^125I]-Substance P as radioligand

T3 sequence (P25103 whole entry Y272H): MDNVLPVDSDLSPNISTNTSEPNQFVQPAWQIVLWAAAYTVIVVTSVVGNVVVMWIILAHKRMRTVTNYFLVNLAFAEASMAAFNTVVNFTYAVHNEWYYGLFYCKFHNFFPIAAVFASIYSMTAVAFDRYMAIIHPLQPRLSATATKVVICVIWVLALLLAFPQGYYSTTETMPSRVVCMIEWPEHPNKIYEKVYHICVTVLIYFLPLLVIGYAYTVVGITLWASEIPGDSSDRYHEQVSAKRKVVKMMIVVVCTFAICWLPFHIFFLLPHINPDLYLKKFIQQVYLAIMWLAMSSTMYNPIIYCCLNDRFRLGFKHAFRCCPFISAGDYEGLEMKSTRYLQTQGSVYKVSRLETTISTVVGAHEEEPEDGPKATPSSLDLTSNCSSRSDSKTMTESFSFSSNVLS
T5 sequence (Q15722 whole entry): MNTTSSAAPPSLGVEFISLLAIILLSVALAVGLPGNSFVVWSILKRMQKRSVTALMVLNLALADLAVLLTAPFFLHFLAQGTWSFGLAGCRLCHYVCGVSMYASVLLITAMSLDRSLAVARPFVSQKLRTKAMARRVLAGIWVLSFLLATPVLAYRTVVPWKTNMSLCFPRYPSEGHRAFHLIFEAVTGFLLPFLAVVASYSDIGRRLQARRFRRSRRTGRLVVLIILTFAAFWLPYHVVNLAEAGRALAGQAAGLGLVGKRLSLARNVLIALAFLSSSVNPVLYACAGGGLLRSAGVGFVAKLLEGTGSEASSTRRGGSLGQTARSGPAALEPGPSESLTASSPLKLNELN
T4 sequence (P25103 whole entry P112H/M291C): as the sequence (P25103 whole entry Y272H) above, with P112H, H272Y, M291C counted along it
T6 sequence (Q01959 whole entry): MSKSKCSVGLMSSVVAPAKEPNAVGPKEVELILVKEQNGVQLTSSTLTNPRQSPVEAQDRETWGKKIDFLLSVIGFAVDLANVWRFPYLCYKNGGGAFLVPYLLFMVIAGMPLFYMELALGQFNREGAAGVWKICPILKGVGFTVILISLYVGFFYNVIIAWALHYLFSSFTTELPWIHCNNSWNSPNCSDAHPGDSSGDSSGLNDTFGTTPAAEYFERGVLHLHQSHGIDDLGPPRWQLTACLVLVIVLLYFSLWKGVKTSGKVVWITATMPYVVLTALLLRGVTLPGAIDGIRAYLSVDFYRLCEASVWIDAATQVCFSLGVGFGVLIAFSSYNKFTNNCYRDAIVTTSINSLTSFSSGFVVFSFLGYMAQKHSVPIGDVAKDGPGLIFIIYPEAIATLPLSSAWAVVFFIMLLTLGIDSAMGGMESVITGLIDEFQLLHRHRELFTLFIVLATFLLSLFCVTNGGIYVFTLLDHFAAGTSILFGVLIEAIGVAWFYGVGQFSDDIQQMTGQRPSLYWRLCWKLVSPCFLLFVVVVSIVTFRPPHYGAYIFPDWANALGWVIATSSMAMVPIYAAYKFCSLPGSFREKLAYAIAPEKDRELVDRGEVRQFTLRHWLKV
T7 sequence (Q01959 whole entry H193K): as the sequence (Q01959 whole entry) above, with H193K counted along it

As for `c1cnc2c(c1)ccc1cccnc12` [1,10-phenanthroline, reference compound], the “effect on [125I]-galanin binding” value on galanin R1 receptor (chelator alone, without metal-ion) is given as “no effect”. For the same molecule, the “effect on the activity of FVIIa” value on Factor VIIa (FVIIa) is recorded as “no effect”.

As for `Cc1cc2cccnc2c2ncccc12` [compound 176, 5-methyl-1,10-phenanthroline], on galanin R1 receptor, the “binding affinity compared with the basic chelator 1,10-phenanthroline” value is given as “increase the binding affinity”.

Consider `O=C1C(=O)c2cccnc2-c2ncccc21` [compound 175, 1,10-phenanthroline-5,6-dione], for which, in test [1], the “binding, fold better than 1,10-phenanthroline” value was 10 fold. Moreover, the “binding compared with 1,10′-phenanthroline” value in test [2] is reported as “almost similar”.

Regarding `c1ccc(-c2cc3cccnc3c3ncccc23)cc1` [compound 134, 5-phenyl-1,10-phenanthroline], the “binding of the metal-ion chelator complex compared with 1,10-phenanthroline” value in test [3] (chelator in complex with Cu(II)) is “entirely eliminated the binding; also recorded: totally inactive”. For the same molecule, the “binding affinity compared with the basic chelator 1,10-phenanthroline” value on galanin R1 receptor was “bound like 1,10′-phenanthroline”. The “potency compared with phenanthroline” value in test [1] is given as “only slightly more potent”. Besides, the “potency, fold more potent than phenanthroline” value in test [2] stood at 7 fold.

With `OCc1ccc2ccc3ccc(CO)nc3c2n1` [compound 133, 2,9-dimethanol-1,10-phenanthroline], the “binding affinity compared with the basic chelator 1,10-phenanthroline” value at galanin R1 receptor was “decrease the affinity”.

In the case of `CC(=O)O/N=C(\N)c1ccccn1` [compound 210, 2-pyridylamidoxime, O-acetyl], the “effect on dopamine transport” value on dopamine transporter is listed as “does not affect”. Moreover, at dopamine transporter (chelator in complex with Zn(II), mono-component), the “potency of blocking dopamine transport, fold higher than free Zn(II)” value was “approx 10 fold”. Further, in test [4], the “effect of the metal-ion chelator complex on dopamine transport” value was “eliminated”.

Take `[Cl][Cu][Cl]` [Cu(II), reference compound]: in test [3] (wild type receptor, whole COS-7 cells, read-out: IC50, displacement of [3H]-LTB4), the IC50 was found to be 70 µM. Also, the Hill coefficient at galanin R1 receptor (displacement of [125I]-galanin) is on record as −4. For the same molecule, in test [5], the “increase in affinity versus wild-type” value is reported as “no increase or just a marginal increase in affinity”.

With `c1ccc(-c2ccccn2)nc1` [2,2′-bipyridine, reference compound], the “effect on dopamine transport” value on dopamine transporter is reported as “no effect”. In addition, on Factor VIIa (FVIIa), the “effect on the activity of FVIIa” value is “no effect”.

As for `ClC(Cl)(Cl)c1ccc2ccc3ccc(C(Cl)(Cl)Cl)nc3c2n1` [compound 135, 2,9-bis(trichloromethyl)-1,10-phenanthroline], the “binding, fold better than 1,10-phenanthroline” value in test [1] is 6 fold. In test [2], the “binding compared with 1,10′-phenanthroline” value is recorded as “almost similar”. For the same molecule, at Factor VIIa (FVIIa) (chelator in complex with Zn(II)), the “potency of inhibiting FVIIa compared with the basic chelator complex” value is “increased potency”.

Broadly, the IC50 is the concentration needed to halve the response being measured. One may read the Hill coefficient as a measure of the steepness of the concentration-response curve.
